In brackets after ≈: the same amount, converted by molar mass.

A short description of series [1]: Solubility test by HPLC in PBS pH 7.4. Type of series: physicochemical. Conditions: for solubility kinetic: PBS (phosphate buffer saline), aqueous buffer, kinetic from dmso stock. How it is done: HPLC method used to test the solubility.
Solubility test was performed by HPLC analysis (column 4.6×15 mm) water/0.1% TFA —CH3CN/0.06% TFA gradient) against standard.
A […] solution of the substance dissolved in DMSO was prepared.
In order to prepare the sample 190 μl of PBS (Phosphate Buffer Saline, pH 7.4) were added to 10 μl of the above solution; instead (while) in order to prepare the standard 190 μl of DMSO to other 10 μl of solution were added.

The test system of series [2] is T1, PDE 4 enzyme.
T1 construct: % at 10^−7; other: at 10^−7; PDE 4 from U937 cell line; other: PDE 4 isolated from U937 cell line; SPA with 3H-cAMP
The series is described as follows: PDE 4 enzyme inhibition (SPA). Conditions: for % at 10^−7: PDE 4 from U937 cell line. Type of series: biochemical. How it is done: a) PDE 4 Enzyme Purification
PDE 4 enzyme was isolated from U937 cell line according to the method of Nielson et al. (J. Allergy Clin. Immunol. 1990, vol. 86, pages 801-807) partially modified for the FPLC technique (Fast Protein Liquid Chromatography).
U-937cell line (Istituto Zooprofilattico Sperimentale, Brescia, Italy) was maintained in RPMI 1640, with 10% foetal calf serum and 2 mM glutamine, at a cell density between 1×10^6 and 8×10^6 cells per ml in an incubator at 37° C. with 5% CO2.
U937 suspension was homogenised in a buffer containing 10 mM TRIS (tri-(hydroxymethyl)-aminomethane), 5 mM MgCl2, 4 mM EGTA (ethyleneglycol-bis-(β-aminoethylether)-N,N,N′N′-tetra-acetic acid), 5 mM […]-mercaptoethanol, 1 μM leupeptin, 1 μM pepstatin, 1% TRITON x-100, and 100 μM phenylmethyl sulfonyl fluoride (PMSF) at pH 7.8.
The homogenate was centrifuged and the supernatant was used for the purification of the PDE 4 enzyme; it was seeded on a column connected to a biologic chromatography system (FPLC, BIO RAD).
PDE 4 enzyme was eluted with a linear gradient, from 0.05 M to 1 M of sodium acetate, and elution fractions were collected for PDE4 activity assay.
The fractions containing PDE4 activity were collected and, after an overnight dialysis against water to remove sodium acetate, were concentrated to 30% volume with an Amicon filtration system (using YM10 membrane filter).
Ethylene glycol (30% v/v) was added and the sample was stored at −20° C. in a single aliquot until the use.
PDE 4 activity assay was performed using Scintillation Proximity Assay (SPA) Amershan kit consisting of tracer ^3H-cAMP, PDE assay buffer (10×solution: 500 mM TRIS/HCl pH 7.5, 83 mM MgCl2 and 17 mM EGTA) and Yttrium SPA PDE beads (containing 18 mM zinc sulphate).
The radioactivity of the beads was measured using a scintillation counter (Packard model MINAXI β TRI-CARB 4000 SERIES).
The IC50 values were calculated from concentration-inhibition curves by non linear regression analysis using the program ORIGIN 3.5 (MICROCAL SOFTWARE INC.) and each fitting was the mean±SEM of 3 experiments using different PDE 4 preparations.

Setting [3] is: PBS pH 7.4, HPLC against standard, compounds of formula I.
Where [4] appears, read: PBS pH 7.4, HPLC, compounds of WO 00/05218.

For `COc1ccc2c(Cc3c(Cl)cncc3Cl)nnc(-c3cc(C(=O)O)cc([N+](=O)[O-])c3)c2c1` [Compound 3, 3-[4-(3,5-dichloro-pyridin-4-ylmethyl)-7-methoxy-phthalazin-1-yl]-5-nitro-benzoic Acid], in series [1] (setting [3]), the kinetic solubility – broadly, the concentration staying in solution when a stock, usually in DMSO, is diluted into the medium – was 298 µg/mL (≈ 614 µM) and the “Sol.” value was found to be 614.43 µM. Further, the “% at 10^−7” value in series [2] is on record as 47% at 10^−7.
For `COc1ccc2c(Cc3c(Cl)cncc3Cl)nnc(-c3cc(C(=O)O)ccc3OC)c2c1` [Compound 5, 3-[4-(3,5-dichloro-pyridin-4-ylmethyl)-7-methoxy-phthalazin-1-yl]-4-methoxy-benzoic Acid], in series [1] (setting [3]), the solubility (kinetic) stood at 230 µg/mL (≈ 489 µM) and the “Sol.” value stood at 489.36 µM. It took 91.3 nM to reach half-maximal inhibition in series [2] (PDE 4 isolated from U937 cell line, SPA with 3H-cAMP) (IC50).
Regarding “3-[4-(3,5-dichloro-pyridin-4-ylmethyl)-7-methoxy-phthalazin-1-yl]-5-methanesulfonylamino-benzoic Acid [Compound 6]”, the “Sol.” value in series [1] (setting [4]) is less than 1 µM.
Turning to `COc1ccc2c(Cc3c(Cl)cncc3Cl)nnc(-c3cc(NS(C)(=O)=O)cc(C(=O)O)c3)c2c1` [Compound 6, 3-[4-(3,5-dichloro-pyridin-4-ylmethyl)-7-methoxy-phthalazin-1-yl]-5-methanesulfonylamino-benzoic Acid], in series [1] (setting [3]), the kinetic solubility amounted to 271 µg/mL (≈ 508 µM) and the “Sol.” value was 508.44 µM.
For the compound `COc1ccc2c(Cc3c(Cl)cncc3Cl)nnc(-c3ccc(C(=O)O)cc3)c2c1` [Compound 1, 4-[4-(3,5-dichloro-pyridin-4-ylmethyl)-7-methoxy-phthalazin-1-yl]-benzoic Acid], in series [1] (setting [3]), the kinetic solubility was determined as 218 µg/mL (≈ 495 µM) and the “Sol.” value was found to be 495.45 µM. In addition, the “% at 10^−7” value in series [2] turned out to be 25% at 10^−7.
On to “5-[4-(3,5-dichloro-pyridin-4-ylmethyl)-7-methoxy-phthalazin-1-yl]-2-methoxy-benzoic Acid [Compound 4]”, for which the “Sol.” value in series [1] (setting [4]) is 37 µM.
For the compound `COc1cc(C(=O)O)cc(-c2nnc(Cc3c(Cl)cncc3Cl)c3ccc(OC)cc23)c1` [Compound 7, 3-[4-(3,5-dichloro-pyridin-4-ylmethyl)-7-methoxy-phthalazin-1-yl]-5-methoxy-benzoic Acid], in series [1] (setting [3]), the kinetic solubility is 235 µg/mL (≈ 500 µM) and the “Sol.” value was determined as 500.00 µM.
`COc1ccc2c(Cc3c(Cl)cncc3Cl)nnc(-c3nc(C(=O)O)co3)c2c1` [Compound 9, 2-[4-(3,5-dichloro-pyridin-4-ylmethyl)-7-methoxy-phthalazin-1-yl]-oxazole-4-carboxylic Acid]: in series [1] (setting [3]), the solubility (kinetic) is 202 µg/mL (≈ 468 µM) and the “Sol.” value is 468.68 µM. Besides, the “% at 10^−7” value in series [2] stood at 14% at 10^−7.
Take `COc1ccc2c(Cc3c(Cl)cncc3Cl)nnc(-c3ccc(OC)c(C(=O)O)c3)c2c1` [Compound 4, 5-[4-(3,5-dichloro-pyridin-4-ylmethyl)-7-methoxy-phthalazin-1-yl]-2-methoxy-benzoic Acid]: in series [1] (setting [3]), the kinetic solubility stood at 226 µg/mL (≈ 481 µM) and the “Sol.” value worked out at 480.85 µM.

For the origin of these results see patent publication US20060166996A1, “Phthalazine derivatives as phosphodiesterase 4 inhibitors” (Zambon Group S.P.A., priority 2002, published 2006).
